Results published in patent publication US12582625B2, “Methods for treating neuroblastoma” (priority 2015, dated 2026).
Where “and” joins values, the source holds several entries; their conditions need not be identical. Identical values can stand only once.

Columns and labels:
[1] = tested on: high-risk neuroblastoma in complete remission; experiment: NMTRC003 phase II prevention trial: event free and overall survival; type: in vivo, human
Excerpt: Study Design. This was an open label, single agent, multicenter clinical trial for patients with high-risk neuroblastoma in complete remission at the completion of standard therapy. […] Prior to study entry, written informed consent was obtained from the subjects' parent(s) or guardian(s) and, when appropriate, written assent was obtained from subjects. ClinicalTrials.gov Identifiers: NCT01586260/NCT02395666.
Subjects were required to have histologically confirmed International Neuroblastoma Staging System (INSS) high-risk neuroblastoma at the time of diagnosis. Subjects must have completed standard high-risk neuroblastoma (HRNB) therapy with 5-7 cycles of induction chemotherapy, surgical resection of primary tumor (if feasible), consolidative therapy with high-dose chemotherapy/autologous stem cell support and radiation therapy as indicated, and anti-GD2 antibody therapy with isotretinoin for up to 6 cycles. […] To be considered in complete remission, subjects had to have no radiographic evidence for persistent neuroblastoma by CT or MRI (and by metaiodobenzylguanidine (MIBG) in subjects whose tumors were originally MIBG avid), histologically negative bone marrow aspirate/biopsy, and normal urinary catecholamines as assessed by ratios of vanillylmandelic acid and homovanillic acid to creatinine. Subjects with residual masses or bone changes visible on CT or MRI could still be considered in CR if the lesions were negative by both MIBG and PET scans.
Dosing diaries were required to be completed for each cycle. […] The primary endpoint was Event Free Survival (EFS); secondary objectives included Overall Survival (OS) and safety. EFS was defined as the period from the first day of administration of study drug to the first occurrence of relapse or death, and OS was defined as the first day of administration of study drug until death; subjects without an event were censored at the time of last contact. Safety analysis was conducted on all subjects who received at least one dose of study drug, and included the frequency, grading, expectedness and attribution of all adverse events as well as dose interruptions, dose reductions, and treatment discontinuation.
Statistical Analysis: Estimation and hypothesis testing based on survival data. Event-free and overall survival were estimated using the method of Kaplan and Meier (Meier, 1958) while standard errors were estimated using Greenwood's formula. […] However, NMTRC003 patients enrolled on ANBL0032 represent a subset of the ANBL0032 population, patients event-free at the start of NMTRC003 therapy (6-10 months after the start of ANBL0032 therapy) (Yu et al., 2010). Therefore, it was necessary to adjust the published ANBL0032 EFS using the definition of conditional probability for a direct comparison. […]

tumor putrescine levels = conditions: eflornithine infusion, without suppressing peripheral platelet counts; cited from earlier work

## NCCCC(N)(C(=O)O)C(F)F (centres unmarked) [DFMO, 2,5-diamino-2-(difluoromethyl) pentanoic acid]
[1]; ITT population (91)
  subjects who have relapsed to date: 6
[1]; follow up of up to 3.5 years
  relapses after completion of DFMO therapy (all 27 cycles): no late relapses and None
[1]; n=4 of 52 with known Curie score, ANBL0032 followed by DFMO
  outcome of subjects with Curie score greater than 0 prior to immunotherapy: remain in remission
[1]; subjects previously enrolled on ANBL0032 (n=74)
  2-year event free survival (EFS): 95% (±3%) and 95% (+/−3%)
Tumor putrescine levels
  decrease in tumor putrescine levels: 90%
